# Data from paper PMC10607100, “Anticancer and Antiphytopathogenic Activity of Fluorinated Isatins and Their Water-Soluble Hydrazone Derivatives” (International Journal of Molecular Sciences, 2023).
# Columns and labels:
# [1] = test system: Chang Liver; experiment: MTT cell viability test, Chang liver; type: cell-based; conditions: Homo sapiens, incubation time 24 h
# Protocol: (§1) Human cell cultures of tumor origin—HeLa (cervical tumor), HuTu 80 (human duodenal adenocarcinoma), ChangLiver (human liver HeLa-like line), and normal cell line WI38, VA 13 subline 2RA is a diploid human cell strain composed of fibroblasts derived from healthy lung tissue provided by The Gamaleya National Center for Epidemiology and Microbiology, as well as the Institute of Cytology of the Russian Academy of Sciences. They were grown in a nutrient medium DMEM (PanEco, Moscow, Russia) and MEM (PanEco, Moscow, Russia), containing fetal bovine serum (10% by volume) (ThermoFisher Scientific, Paisley, UK), Glutamax (2 mM) (Gibco, Scotland, UK), and penicillin-streptomycin (1% by volume) (PanEco, Moscow, Russia). The cultivation was carried out at 37 °C in a humidified CO2 atmosphere (5%).
# (§2) Cell viability was determined by the MTT test. Cells were seeded in a 96-well plate in the amount of 1 × 10^4 cells/200 µL of complete nutrient medium and cultured at 37 °C in CO2 (5%). After 24 h of incubation, various concentrations of test compounds in the range of 0.1 to 100 μM were added to the cell cultures, and then the cells were cultured under the same conditions for 24 and 72 h. For each concentration, the experiment was carried out in triplicate.
# (§3) All compounds were dissolved in DMSO and then diluted with the medium to the required concentration. […] The DMSO was also added to the control wells in a volume of 1%. After the incubation time, MTT (3-(4,5-dimethylthiazol-2-yl)-2,5-diphenyltetrazolium bromide, 5 mg/mL) was added to each well, and plates were additionally incubated for 2 h (until the characteristic color appeared).
# (§4) Using a plate analyzer (Cytation3, BioTech Instruments Inc., Winooski, VT, USA), the optical density was determined at 530 nm.
# (§5) The IC50 parameter was calculated using the AAT Bioquest program.
# [2] = test system: M-HeLa; experiment: MTT cell viability test, M-HeLa; type: cell-based, human; conditions: Homo sapiens, M-HeLa; incubation time 24 h
# Protocol: as §1, §2, §3, §4, §5
# (§6) The selectivity index (SI) is calculated as the ratio between the IC50 for normal cells and the IC50 for cancer cells.
# [3] = test system: HuTu 80; experiment: MTT cell viability test, HuTu 80; type: cell-based, human; conditions: Homo sapiens, HuTu80; incubation time 24 h
# Protocol: as §1, §2, §3, §4, §5, §6
compound,measurement,setting,value
"O=C1C(=O)N(Cc2c(F)c(F)c(F)c(F)c2F)c2ccc(F)cc21 [Compound 3f, 5-Fluoro-1-((perfluorophenyl)methyl)indoline-2,3-dione]",IC50,[1],> 100 µM
same,melting point,,112 to 113 °C
same,IC50,[2],100 ± 7.4 µM
same,IC50,[3],92 ± 6.4 µM
O=C1C(=O)N(Cc2ccc(Br)cc2F)c2ccccc21 [Compound 8b],IC50,[1],100 ± 8.4 µM
same,IC50,[2],40 ± 2.8 µM
same,IC50,[3],59.4 ± 4.2 µM
O=C1C(=O)N(Cc2ccc(F)cc2Cl)c2ccccc21 [Compound 8a],IC50,[1],> 100 µM
same,IC50,[2],50 ± 3.7 µM
same,IC50,[3],64 ± 4.5 µM
O=C1C(=O)N(Cc2c(F)c(F)c(F)c(F)c2F)c2ccccc21 [Compound 8d],IC50,[1],> 100 µM
same,IC50,[2],> 100 µM
same,IC50,[3],54.1 ± 3.9 µM
"Cc1ccc2c(c1)C(=O)C(=O)N2Cc1cccc(C(F)(F)F)c1 [Compound 4e, 5-Methyl-1-(3-(trifluoromethyl)benzyl)indoline-2,3-dione]",IC50,[1],> 100 µM
same,melting point,,155 to 156 °C
same,IC50,[2],94 ± 7.5 µM
same,IC50,[3],53.2 ± 3.9 µM
"CC(C)(C)c1cc(CN2C(=O)C(=O)c3cc(F)ccc32)cc(C(C)(C)C)c1 [Compound 4d, 1-(3,5-Di-tert-butylbenzyl)-5-fluoroindoline-2,3-dione]",IC50,[1],39.4 ± 2.8 µM
same,melting point,,136 to 137 °C
same,IC50,[2],58.4 ± 4.1 µM
same,IC50,[3],33.3 ± 2.3 µM
"Cc1cc(C)cc(CN2C(=O)C(=O)c3cc(F)ccc32)c1 [Compound 4b, 1-(3,5-Dimethylbenzyl)-5-fluoroindoline-2,3-dione]",IC50,[1],63.2 ± 5.5 µM
same,melting point,,97 to 98 °C
same,IC50,[2],58.8 ± 4.4 µM
same,IC50,[3],50 ± 3.8 µM
"Cc1ccc(CN2C(=O)C(=O)c3cc(F)ccc32)cc1 [Compound 4a, 5-Fluoro-1-(4-methylbenzyl)indoline-2,3-dione]",IC50,[1],80 ± 5.8 µM
same,melting point,,111 to 112 °C
same,IC50,[2],44.7 ± 3.3 µM
same,IC50,[3],44 ± 2.9 µM
